Results on 8 molecules are retold here after patent US20080286235A1, “Antimicrobials and related methods” (priority 2006, published 2008).

Converted amounts (≈) assume the structure as drawn.

Data set [1] in a line: in vitro. The following applies: mouse.
Data set [2] deals with C3H/10T1/2 mouse embryo fibroblasts. The following applies: for Highest Non-Cytotoxic Concentration: mouse; for LC50 value (reduces the plating efficiency to 50% of control cells) / CC50: 10T1/2 cells; for CC50: read-out: LC50 value.
Data set [3] concerns ringworm. The data set is described as follows: Cat ringworm treatment. It counts as in vivo, kittens. The following applies: Solution A 1:16 topically three times daily for three days.

Regarding `COC(=O)Nc1nc2cc(C(=O)c3ccc(F)cc3)ccc2[nH]1` [Flubendazole], in data set [1], the CC50 worked out at 0.15 µg/mL (≈ 0.479 µM).
The same measure, in the same setting: the figure for `C[C@@H]1O[C@@H](O[C@H]2C[C@@H](O)[C@]3(CO)[C@H]4[C@H](O)C[C@]5(C)[C@@H](C6=CC(=O)OC6)CC[C@]5(O)[C@@H]4CC[C@]3(O)C2)[C@H](O)[C@H](O)[C@H]1O` [Ouabain] is 500 µg/mL (≈ 855 µM).
On to `CC(=O)Nc1ccc(O)cc1` [Acetaminophen], for which the CC50 in data set [1] was 500 µg/mL (≈ 3310 µM). The “Highest Non-Cytotoxic Concentration” value in data set [2] came to 0.05 mg/mL.
Regarding `CC(=O)ON(C(C)=O)c1ccc2c(c1)Cc1ccccc1-2` [N-acetoxy-acetyl aminofluorene], in data set [2], the “LC50 value (reduces the plating efficiency to 50% of control cells)” value turned out to be 3.99 µg/mL and the CC50 came to 15 µM.
Turning to `COC1=CC(=O)C[C@@H](C)[C@]12Oc1c(Cl)c(OC)cc(OC)c1C2=O` [Griseofulvin], the “outcome of ringworm treatment” value in data set [3] is “no success”.
Regarding `OC1c2cc3ccc4cccc5ccc(c2C2OC2C1O)c3c45` (stereo not drawn) [BaP-anti-diol epoxide], in data set [2], the “LC50 value (reduces the plating efficiency to 50% of control cells)” value was 0.0755 µg/mL and the CC50 was determined as 0.25 µM.
With `CC(=O)Oc1ccccc1C(=O)O` [Aspirin], the “Highest Non-Cytotoxic Concentration” value in data set [2] was found to be 0.25 mg/mL.
`CCOc1ccc(NC(C)=O)cc1` [Phenacetin] showed a CC50 in data set [1] of 1000 µg/mL (≈ 5580 µM). Moreover, in data set [2], the “Highest Non-Cytotoxic Concentration” value was 0.18 mg/mL.
